Where a SMILES comes first, the peptide text is derived from it. The star is where a group is joined. Cbz = O=C(OCc1ccccc1)*; CH2Cl = ClC*; CH2F = FC*
How the values were obtained:
[1] = test system: mouse peritoneal macrophages; assay: Cell loss by flow cytometry in mouse peritoneal macrophages; format: cell-based; settings: FIG. 7
Method: (§1) Cell viability was determined after treatments by staining with propidium iodide (2 μg/mL) and flow cytometric analysis on a FACScan. Percent cell death was quantitated as previously described (26).
(§2) The RAW264.7 cells were treated with 0.1 ug/ml Wortmannin (WM) or 10 mM 3-methyladenine (3-MA) for 1 hr and the with 100 uM zVAD for 48 hrs, after which cell loss was quantitated by flow cytometry. […] Mouse peritoneal macrophages cells were treated with 0.1 ug/ml Wortmannin (WM) or 10 mM 3-methyladenine (3-MA) for 1 hr and with 100 uM zVAD for 24 hrs, after which cell loss were quantitated by flow cytometry.

[2] = test system: RAW264.7 cells; assay: Cell loss by flow cytometry in RAW264.7 cells; format: cell-based, mouse; settings: FIG. 6
Method: as §1, §2

[3] = test system: L929 cells; assay: Cell death analysis (propidium iodide staining, flow cytometry) in L929 cells; format: cell-based, mouse; settings: for Induction of cell death (% cell loss): 40 hours, FIG. 9
Method: as §1
In mouse L929 fibroblastic cells, tumor necrosis factor (TNF), oxidants, ceramide, and radiation can induce caspase-independent death (11). […] L929 cells were treated with 1 ul of dimethyl sulfoxide (DMSO) FIG. 1A (a and c) or 20 uM zVAD (b and d) for 24 hours and examined by phase contrast microscopy (a and b); or 4′,6′-diamidino-2-phenylindole-staining and fluorescent microscopy (c and d). Magnification: 200×. […] The percentage of vaculated cells is the fraction of cells that have 10 or more autophagic vacuoles by TEM. Statistical analysis is shown in FIG. 4 and morphometric analysis of zVAD-induced autophagy in L929 cells is quantitated in Table 1 setforth below. […]
L929 cells were treated with 1 ul/ml DMSO, 20 uM zVAD, 20 uM zFA, 20 uM LEHD, 20 uM DEVD, or 20 uM zAAD for 40 hours, and % cell loss was quantified by flow cytometry. […] Because zVAD is a potent inhibitor of caspase-8, it likely exerted its death effect through inhibition of caspase-8.

[4] = test system: RIP; assay: RIP cleavage by caspase-8 (Western blot, FIG. 11); format: cell-based; settings: cells treated with zVAD
Source text: It was observed that the signaling through the serine-threonine kinase RIP is essential for autophagic cell death. When RIP is cleaved and inactivated by caspase 8, then a mechanism is provided for the prevention of autophagic cell death. However, inhibition of caspase 8 allows RIP to transmit the signal needed to kill the cell through the autophagic pathway. […] Clearly, zVAD treatment prevents RIP from constitutive caspase-8 cleavage. The indicated band is the 42 kD proteolytic product that is characteristic of caspase-8 cleavage (1).

[5] = test system: L929 cells; assay: Transmission electron microscopy morphometric analysis of autophagy in L929 cells; format: cell-based, mouse; settings: for Apoptotic cell / Autophagic and apoptotic features / Autophagic cells(total) / Lytic/necrotic cell / Mild autophagy (cell with 10~19 vacuoles) / Moderate autophagy (cell with 20~29 vacuoles) / Normal cells / Severe Autophagy (cell with 30 or more vacuoles) / Vacuolated(but not autophagic): TEM, of total 100
Method: Cells were fixed in 3% glutaraldehyde in 0.1 M MOPS buffer (pH 7.0) for 8 hrs at room temperature, 3% glutaraldehyde/1% paraformaldehyde in 0.1 M MOPS buffer (pH 7.0) for 16 hours at 4° C., post-fixed in 1% osmium tetroxide for 1 hour, embedded in Spurr's resin, sectioned, double stained with Uranyl acetate and Lead citrate, and analyzed using a Zeiss EM 10 transmission electron microscope. For each treatment or control group, at least 100 cells from randomly chosen transmission electron microscopy fields were analyzed for quantification of morphological features. Cells with ≧10 vacuoles were scored as autophagy positive. Cells were stratified as follows: 0 (≦9 vacuoles/cell), 1(10-19 vacuoles/cell), 2 (20-29 vacuoles/cell), 3 (≧30 vacuoles/cell). Scores were ranked and comparisons of treatment to control groups were made using the Mann-Whitney U test using the Statview 5.0.1 program. Statistical analysis of the differences in FIG. 1, panels D, E, F, and G and FIG. 2A, B, D were significant (p<0.0001).
In mouse L929 fibroblastic cells, tumor necrosis factor (TNF), oxidants, ceramide, and radiation can induce caspase-independent death (11). […] L929 cells were treated with 1 ul of dimethyl sulfoxide (DMSO) FIG. 1A (a and c) or 20 uM zVAD (b and d) for 24 hours and examined by phase contrast microscopy (a and b); or 4′,6′-diamidino-2-phenylindole-staining and fluorescent microscopy (c and d). Magnification: 200×. […] The percentage of vaculated cells is the fraction of cells that have 10 or more autophagic vacuoles by TEM. Statistical analysis is shown in FIG. 4 and morphometric analysis of zVAD-induced autophagy in L929 cells is quantitated in Table 1 setforth below.

[6] = test system: c-Jun N-terminal kinase (JNK); assay: Detection of phosphorylated JNK/SAPK by Western blot in L929 cells; format: cell-based, mouse; settings: zVAD 24 hrs, 2% FBS, FIG. 2B
Method: L929 cells were treated with DMSO or zVAD for 24 hrs in the presence of 2% FBS. The cell lysate was spun for 10 minutes at 13000 rpm. 20 ul of the c-Jun beads (SAPK/JNK assay kit from Cell Signaling) were added to the supernatant and incubated overnight at 4° C. Beads were washed 4 times with lysis buffer and resuspended in 50 ul of 1× sample buffer. Samples were boiled for 5 minutes and analyzed by SDS-PAGE and Western blot for phosphorylated SAP/JNK by probing with phospho-JNK antibody.
Death receptors can elicit nonapoptotic death through the “receptor-interacting protein” (RIP), a death-domain-containing, serine-threonine kinase (6, 7). […] For example, cells were treated with zVAD after transfection with RIP RNAi or nonspecific (NS) oligonucleotides. Reduction in cell number (solid bars) and the fractions of cells with autophagic features based on TEM (open bars) are shown in FIG. 2A. FIG. 2B is a western blot for phospho-JNK (left lane) or total JNK protein (right lane) after zVAD treatment. zVAD activated c-Jun N-terminal kinase (JNK) that is also activated by RIP in response to cytokines.

Compound: Cn1cnc(N)c2ncnc1-2 [3-MA, 3-methyladenine]
- Effect on zVAD-induced cell death ([1]; 0.1 ug/ml WM or 10 mM 3-MA for 1 hr, then 100 uM zVAD for 24 hrs): arrested zVAD-induced cell death
- Effect on zVAD-induced cell death ([2]; 0.1 ug/ml WM or 10 mM 3-MA for 1 hr, then 100 uM zVAD for 48 hrs): arrested zVAD-induced cell death
- Effect on zVAD-induced cell loss ([3]; WM 0.1 ug/ml or 3-MA 10 mM for 1 hour, then 20 uM zVAD for 36 hours, FIG. 1E): reduction in cell loss

Compound: O=C1c2ccccc2-c2n[nH]c3cccc1c23 [JNK inhibitor II, Anthra[1,9-cd]pyrazol-6 (2H)-one 1,9-pyrazoloanthrone]
- Effect on zVAD-induced cell death (% cell loss) ([3]; 1 ug/ml inhibitor for 1 hour, then 20 uM zVAD for 40 hours, flow cytometry, FIG. 8): blocked zVAD-induced cell death

Compound: COC(=O)CC(NC(=O)C(C)NC(=O)C(NC(=O)OCc1ccccc1)C(C)C)C(=O)CF (stereo not drawn) [zVAD, Benzyloxycarbonyl-Valyl-Alanyl-Aspartyl-(O-methyl)-fluoromethylketone] (Cbz-Val-Ala-Asp(OMe)-CH2F; configuration not given here)
- RIP cleavage fragments characteristic of caspase-8 activity [4]: no cleaved fragments were found
- Induction of cell death ([1]; 100 uM zVAD for 24 hrs): induced cell death by the autophagic pathway
- Time course of zVAD induced autophagy (percentage of vacuolated cells, 10 or more autophagic vacuoles by TEM) ([5]; FIG. 1D): vacuolated cells accumulated prior to cell death
- Apoptotic cell ([5]; zVAD 0 hrs): 0
- Autophagic and apoptotic features ([5]; zVAD 0 hrs): 0
- Autophagic cells(total) ([5]; zVAD 0 hrs): 0
- Lytic/necrotic cell ([5]; zVAD 0 hrs): 0
- Mild autophagy (cell with 10~19 vacuoles) ([5]; zVAD 0 hrs): 0
- Moderate autophagy (cell with 20~29 vacuoles) ([5]; zVAD 0 hrs): 0
- Normal cells ([5]; zVAD 0 hrs): 85
- Severe Autophagy (cell with 30 or more vacuoles) ([5]; zVAD 0 hrs): 0
- Vacuolated(but not autophagic) ([5]; zVAD 0 hrs): 15
- Apoptotic cell ([5]; zVAD 8 hrs): 4
- Autophagic and apoptotic features ([5]; zVAD 8 hrs): 1
- Autophagic cells(total) ([5]; zVAD 8 hrs): 76
- Lytic/necrotic cell ([5]; zVAD 8 hrs): 0
- Mild autophagy (cell with 10~19 vacuoles) ([5]; zVAD 8 hrs): 55
- Moderate autophagy (cell with 20~29 vacuoles) ([5]; zVAD 8 hrs): 20
- Normal cells ([5]; zVAD 8 hrs): 19
- Severe Autophagy (cell with 30 or more vacuoles) ([5]; zVAD 8 hrs): 1
- Vacuolated(but not autophagic) ([5]; zVAD 8 hrs): 0
- Apoptotic cell ([5]; zVAD 12 hrs): 1
- Autophagic and apoptotic features ([5]; zVAD 12 hrs): 1
- Autophagic cells(total) ([5]; zVAD 12 hrs): 93
- Lytic/necrotic cell ([5]; zVAD 12 hrs): 3
- Mild autophagy (cell with 10~19 vacuoles) ([5]; zVAD 12 hrs): 24
- Moderate autophagy (cell with 20~29 vacuoles) ([5]; zVAD 12 hrs): 59
- Normal cells ([5]; zVAD 12 hrs): 2
- Severe Autophagy (cell with 30 or more vacuoles) ([5]; zVAD 12 hrs): 10
- Vacuolated(but not autophagic) ([5]; zVAD 12 hrs): 0
- Induction of cell death ([2]; 100 uM zVAD for 48 hrs): induced cell death by the autophagic pathway
- Time after which death was complete ([3]; 20 uM zVAD, FIG. 1B): 40 h
- Time at which death began after zVAD treatment ([3]; 20 uM zVAD, FIG. 1B): 12 h
- Induction of death of L929 cells ([3]; 20 uM, 24 hours, microscopy): directly induced the death of L929 cells
- Induction of cell death (% cell loss) ([3]; 20 uM, flow cytometry): induced cell death
- Activation of JNK (phospho-JNK Western blot) [6]: activated

Compound: C[C@@H]1C[C@@H]([C@H](O)CC2CC(=O)NC(=O)C2)C(=O)[C@@H](C)C1 [cycloheximide, Cycloheximide]
- Effect of protein synthesis inhibition on zVAD-induced cell death ([3]; FIG. 2C): blocked cell death

Compound: COC(=O)CCC(NC(=O)C(CC(=O)OC)NC(=O)OCc1ccccc1)C(=O)NC(C(=O)NC(CC(=O)OC)C(=O)CF)C(C)C (stereo not shown) [DEVD, benzyloxycarbonyl-Aspartyl-(O-methyl)-Glutamyl-(O-methyl)-Valyl-Aspartyl-(O-methyl)-fluoromethylketone]
- Induction of cell death (% cell loss) ([3]; 20 uM, flow cytometry): no ability to induce cell death

Compound: COC(=O)CC(NC(=O)C(C)NC(=O)C(C)NC(=O)OCc1ccccc1)C(=O)CCl (stereo not drawn) [ZAAD, benzyloxycarbonyl-Alanyl-Alanyl-Aspartyl-(O-methyl)-chloromethylketone] (Cbz-Ala-Ala-Asp(OMe)-CH2Cl; configuration not given here)
- Induction of cell death (% cell loss) ([3]; 20 uM, flow cytometry): no ability to induce cell death

From patent US7838645B2, “Function of autophagy genes in cell death” (University of Maryland College Park, priority 2004, dated 2010)
